Results: article PMC7031696 (Cell chemical biology, 2019)

System: 3D7-MR4 trophozoite parasite-infected RBCs
Experiment: Metabolomic profiling (hydrophilic metabolite changes, UHPLC-MS)
Format: cell-based, Plasmodium falciparum

Ferroquine [reference compound] was tested, and the “Log2(fold changes) adenosine” value (metabolite adenosine, log2 fold change) was 0.0000, the “Log2(fold changes) alanine/sarcosine” value (metabolite alanine/sarcosine, log2 fold change) was 0.0137 and the “Log2(fold changes) anthranilate” value (metabolite anthranilate, log2 fold change) was 0.0000. For the same substance, the “Log2(fold changes) arginine” value (metabolite arginine, log2 fold change) was 0.0962, the “Log2(fold changes) asparagine” value (metabolite asparagine, log2 fold change) was 0.2455 and the “Log2(fold changes) aspartate” value (metabolite aspartate, log2 fold change) was 0.0829. For the same substance, the “Log2(fold changes) biotin” value (metabolite biotin, log2 fold change) was 0.0000, the “Log2(fold changes) cCMP” value (metabolite cCMP, log2 fold change) was 0.0000 and the “Log2(fold changes) cGMP” value (metabolite cGMP, log2 fold change) was 0.0000. For the same substance, the “Log2(fold changes) carnitine” value (metabolite carnitine, log2 fold change) was 0.0000, the “Log2(fold changes) citrate/isocitrate” value (metabolite citrate/isocitrate, log2 fold change) was 0.0063 and the “Log2(fold change) of coenzyme A” value (metabolite coenzyme A) was 0.9119. The “Log2(fold change) of cyclic-AMP” value (metabolite cyclic-AMP) was 0.1031, the “Log2(fold change) of cytidine” value (metabolite cytidine) was 0.1024 and the “Log2(fold change) of dAMP” value (metabolite dAMP) was -0.3497. For the same substance, the “Log2(fold change) of dATP” value (metabolite dATP) was 0.0366, the “Log2(fold change) of dCDP” value (metabolite dCDP) was -0.2652 and the “Log2(fold change) of dCMP” value (metabolite dCMP) was -0.1471. The “Log2(fold change) of dCTP” value (metabolite dCTP) was 0.0304, the “Log2(fold change) of dGDP/ADP” value (metabolite dGDP/ADP) was -0.1961 and the “Log2(fold change) of dGMP/AMP” value (metabolite dGMP/AMP) was -0.3182. For the same substance, the “Log2(fold change) of dGTP/ATP” value (metabolite dGTP/ATP) was 0.0666, the “Log2(fold change) of dTDP” value (metabolite dTDP) was -0.3263 and the “Log2(fold change) of dTMP” value (metabolite dTMP) was -0.4999. The “Log2(fold change) of dTTP” value (metabolite dTTP) was 0.0866, the “Log2(fold change) of dUMP” value (metabolite dUMP) was 0.0000 and the “Log2(fold change) of dUTP” value (metabolite dUTP) was 0.0000. For the same substance, the “Log2(fold change) of deoxyguanosine” value (metabolite deoxyguanosine) was 0.0000, the “Log2(fold change) of deoxyinosine” value (metabolite deoxyinosine) was 0.0000 and the “Log2(fold change) of deoxyribose-phosphate” value (metabolite deoxyribose-phosphate) was 0.0000. The “Log2(fold change) of deoxyuridine” value (metabolite deoxyuridine) was 0.0000, the “Log2(fold change) of dihydroorotate” value (metabolite dihydroorotate) was 0.1627 and the “Log2(fold change) of folate” value (metabolite folate) was 0.1440. For the same substance, the “Log2(fold change) of fructose-1-6-bisphosphate” value (metabolite fructose-1-6-bisphosphate) was 0.3162, the “Log2(fold change) of fructose-6-phosphate” value (metabolite fructose-6-phosphate) was 0.3514 and the “Log2(fold change) of fumarate” value (metabolite fumarate) was -0.0660. For the same substance, the “Log2(fold change) of glucono-lactone” value (metabolite glucono-lactone) was 0.0470, the “Log2(fold change) of glucose-1/6-phosphate” value (metabolite glucose-1/6-phosphate) was 0.0000 and the “Log2(fold change) of glutamate” value (metabolite glutamate) was 0.0411. For the same substance, the “Log2(fold change) of glutamine” value (metabolite glutamine) was 0.1003, the “Log2(fold change) of glutathione” value (metabolite glutathione) was 0.0000 and the “Log2(fold change) glutathione disulfide” value (metabolite glutathione disulfide) was -0.3466. The “Log2(fold change) glycerate” value (metabolite glycerate) was 0.0000, the “Log2(fold change) guanine” value (metabolite guanine) was 0.0000 and the “Log2(fold change) guanosine” value (metabolite guanosine) was -0.2330. For the same substance, the “Log2(fold change) histidine” value (metabolite histidine) was 0.0507, the “Log2(fold change) homocysteic acid” value (metabolite homocysteic acid) was 0.0000 and the “Log2(fold change) hydroxyphenylpyruvate” value (metabolite hydroxyphenylpyruvate) was 0.0000. For the same substance, the “Log2(fold change) hydroxyproline/Aminolevulinate” value (metabolite hydroxyproline/Aminolevulinate) was 0.0365, the “Log2(fold change) hypoxanthine” value (metabolite hypoxanthine) was 0.0000 and the “Log2(fold change) indole” value (metabolite indole) was 0.0000. For the same substance, the “Log2(fold change) inosine” value (metabolite inosine) was 0.4396, the “Log2(fold change) isoleucine” value (metabolite isoleucine) was 0.0740 and the “Log2(fold change) lactate” value (metabolite lactate) was 0.1682. The “Log2(fold change) leucine” value (metabolite leucine) was 0.0991, the “Log2(fold change) lysine” value (metabolite lysine) was 0.0854 and the “Log2(fold change) malate” value (metabolite malate) was -0.0032. The “Log2(fold change) maleic acid” value (metabolite maleic acid) was 0.0142, the “Log2(fold change) methionine” value (metabolite methionine) was 0.2846 and the “Log2(fold change) myo-inositol” value (metabolite myo-inositol) was 0.0000. For the same substance, the “Log2(fold change) nicotinamide mononucleotide” value (metabolite nicotinamide mononucleotide) was -0.0133, the “Log2(fold change) nicotinate” value (metabolite nicotinate) was 0.1646 and the “Log2(fold change) ornithine” value (metabolite ornithine) was 0.0000. The “Log2(fold change) orotate” value (metabolite orotate) was 0.0201, the “Log2(fold change) orotidine-5'-phosphate” value (metabolite orotidine-5'-phosphate) was 0.1401 and the “Log2(fold change) oxaloacetate” value (metabolite oxaloacetate) was 0.0000. The “Log2(fold change) p-aminobenzoate” value (metabolite p-aminobenzoate) was 0.0000, the “Log2(fold change) p-hydroxybenzoate” value (metabolite p-hydroxybenzoate) was 0.0000 and the “Log2(fold change) pantothenate” value (metabolite pantothenate) was 0.1559. The “Log2(fold change) phenylalanine” value (metabolite phenylalanine) was 0.0217, the “Log2(fold change) phenylpyruvate” value (metabolite phenylpyruvate) was 0.0000 and the “Log2(fold change) phosphoenolpyruvate” value (metabolite phosphoenolpyruvate) was 0.1068. The “Log2(fold change) prephenate” value (metabolite prephenate) was 0.0000, the “Log2(fold change) proline” value (metabolite proline) was 0.0000 and the “Log2(fold change) pyridoxine” value (metabolite pyridoxine) was 0.3553. The “Log2(fold change) pyruvate” value (metabolite pyruvate) was -0.3114, the “Log2(fold change) riboflavin” value (metabolite riboflavin) was 0.0000 and the “Log2(fold change) ribose” value (metabolite ribose) was 0.0000. The “Log2(fold change) ribose-phosphate” value (metabolite ribose-phosphate) was 0.0000, the “Log2(fold change) ribulose-5-phosphate” value (metabolite ribulose-5-phosphate) was 0.1038 and the “Log2(fold change) serine” value (metabolite serine) was 0.2426. For the same substance, the “Log2(fold change) sn-glycerol-3-phosphate” value (metabolite sn-glycerol-3-phosphate) was 0.0527, the “Log2(fold change) succinate/Methylmalonic acid” value (metabolite succinate/Methylmalonic acid) was -0.0206 and the “Log2(fold change) succinyl-CoA/methylmalonyl-CoA” value (metabolite succinyl-CoA/methylmalonyl-CoA) was 0.0000. The “Log2(fold change) taurine” value (metabolite taurine) was 0.3032, the “Log2(fold change) thiamine” value (metabolite thiamine) was 0.1205 and the “Log2(fold change) threonine/homoserine” value (metabolite threonine/homoserine) was 0.0762. For the same substance, the “Log2(fold change) thymidine” value (metabolite thymidine) was 0.0000, the “Log2(fold changes) thymine” value (metabolite thymine, log2 fold change) was 0.0000 and the “Log2(fold changes) trehalose-6-Phosphate” value (metabolite trehalose-6-Phosphate, log2 fold change) was 0.0000. For the same substance, the “Log2(fold changes) tryptophan” value (metabolite tryptophan, log2 fold change) was -0.1782, the “Log2(fold changes) tyrosine” value (metabolite tyrosine, log2 fold change) was 0.0328 and the “Log2(fold changes) uridine” value (metabolite uridine, log2 fold change) was 0.0000. For the same substance, the “Log2(fold changes) valine” value (metabolite valine, log2 fold change) was 0.0750, the “Log2(fold changes) xanthine” value (metabolite xanthine, log2 fold change) was 0.0000 and the “Log2(fold changes) xanthosine-5-phosphate” value (metabolite xanthosine-5-phosphate, log2 fold change) was 0.2017. For the same substance, the “Log2(fold changes) xanthosine” value (metabolite xanthosine, log2 fold change) was -0.1521 and the “Log2(fold changes) xylose” value (metabolite xylose, log2 fold change) was 0.0000.
